Earlier results in paper PMC7248880, “Preclinical Incorporation Dosimetry of [^18F]FACH—A Novel ^18F-Labeled MCT1/MCT4 Lactate Transporter Inhibitor for Imaging Cancer Metabolism with PET” (Molecules, 2020).

Legend:
[1] = piglet biokinetic data; cited from earlier work
MCT1 = tested on: MCT1; parameters: method as in PMID 31017677, PMID 31017677; settings: cited from earlier work
MCT4 = tested on: MCT4; parameters: method as in PMID 31017677, PMID 31017677; settings: cited from earlier work

| Compound | ED, Preclinical [1] | IC50 (MCT1) | IC50 (MCT4) |
| --- | --- | --- | --- |
| [18F]c1ccc(C2CC3CCCC2N3)cn1 (single isomer, unassigned; (+)) [(+)-[^18F]flubatine] | 14.3 μSv/MBq | – | – |
| [18F]CC[C@H]1OC2(CCN(Cc3ccccc3)CC2)c2ccccc21 [(R)-(+)-[^18F]fluspidine] | 14.0 μSv/MBq | – | – |
| FCC[C@@H]1OC2(CCN(Cc3ccccc3)CC2)c2ccccc21 [(S)-(−)-[^18F]fluspidine] | 12.9 μSv/MBq | – | – |
| [18F]c1ccc([C@@H]2C[C@H]3CCC[C@@H]2N3)cn1 [(−)-[^18F]flubatine] | 14.7 μSv/MBq | – | – |
| CCCN(CCCF)c1ccc(/C=C(\C#N)C(=O)O)c(OC)c1 [FACH] | – | 11 nM | 6.5 nM |
| O=S1(=O)c2ccc([18F])cc2-c2ccc(N3CCN4CCC3CC4)cc21 [[^18F]DBT10] | 13.7 μSv/MBq | – | – |
